In patent publication US8937180B2, “Method for preparing a polymer conjugate” (Nektar Therapeutics, priority 2006, dated 2015):

How the values were obtained:
[1] = Maximum tolerated dose in tumor-bearing athymic nude mice; details: mouse, in vivo, intravenous
DU-145 prostate tumors = test: Anti-tumor activity in mice implanted with DU-145 prostate tumors; details: two doses (q7d×2), FIG. 2

## CC(=O)O[C@@]12CO[C@@H]1C[C@H](O)[C@@]1(C)C(=O)[C@H](O)C3=C(C)[C@@H](OC(=O)[C@H](O)[C@@H](NC(=O)OC(C)(C)C)c4ccccc4)C[C@@](O)([C@@H](OC(=O)c4ccccc4)[C@H]21)C3(C)C [docetaxel, Docetaxel]
[1]; athymic nude, mice with DU-145 prostate tumors
  MTD at 78 day: ≤ 30 mg/kg
[1]; athymic nude mice, H460 NSCLC tumors, 2nd study
  MTD: ≤ 30 mg/kg
DU-145 prostate tumors; 3 doses tested, 78 day observation period
  anti-tumor effect on tumor growth: good activity
DU-145 prostate tumors
  time after which tumors recover and grow: 30 to 50 days
